Experimental data as given in patent US8828682B2, “Methods and articles for detecting hemolytic microorganisms” (priority 2008, dated 2014).
Like-named read-outs stand apart in the source and are kept apart here.

Assays:
[1] = test system: methicillin-resistant S. epidermidis (strain 497, clinical isolate); assay: Growth and hemolysis in PAC thin film culture plates with antibiotic in PBS/10% sheep blood diluent; assay type: cell-based, Staphylococcus epidermidis; settings: 35° C., 10% sheep blood in PBS
Procedure: (§1) Antibiotic stock solutions (3 mg/mL and 4 mg/mL) were individually prepared in DI water. The solutions were filter-sterilized. The antibiotics included cefoxitin, cefazolin, and cefuroxime. The antibiotics were diluted 1:1000 into PBS/sheep blood aliquots to achieve final antibiotic concentrations of 3 μg/mL and 4 μg/mL, respectively.
(§2) The bacterial suspensions were subjected to two serial 1:100 dilutions in sterile PBS. The diluted suspensions were then further subjected to a 1:100 dilution into each of the respective PBS/sheep blood mixtures containing an antibiotic. One milliliter of each final suspension; containing sheep blood, microorganisms, and an antibiotic in PBS; was into a PAC plate as described above. The plates were incubated at 35° C. for 48 hours. Each plate was checked for colony growth and hemolytic zone after 24 and 48 hours of incubation.

[2] = test system: methicillin-resistant S. aureus (strain 565, clinical isolate); assay type: cell-based, Staphylococcus aureus; settings: 35° C., 10% sheep blood in PBS
Procedure: as §1, §2

CO[C@@]1(NC(=O)Cc2cccs2)C(=O)N2C(C(=O)O)=C(COC(N)=O)CS[C@@H]21 [Cefo, cefoxitin]
+/+: Growth ([1]; antibiotic 3 μg/mL, 24 hours) | Growth ([1]; antibiotic 3 μg/mL, 48 hours) | Growth ([1]; antibiotic 4 μg/mL, 24 hours) | Growth ([1]; antibiotic 4 μg/mL, 48 hours) | Growth ([2]; antibiotic 3 μg/mL, 24 hours) | Hemolysis ([2]; antibiotic 3 μg/mL, 24 hours) | Growth ([2]; antibiotic 3 μg/mL, 48 hours) | Hemolysis ([2]; antibiotic 3 μg/mL, 48 hours) | Growth ([2]; antibiotic 4 μg/mL, 24 hours) | Hemolysis ([2]; antibiotic 4 μg/mL, 24 hours) | Growth ([2]; antibiotic 4 μg/mL, 48 hours) | Hemolysis ([2]; antibiotic 4 μg/mL, 48 hours)

CO/N=C(\C(=O)N[C@@H]1C(=O)N2C(C(=O)O)=C(COC(N)=O)CS[C@H]12)c1ccco1 [Cefu, cefuroxime]
+/+: Growth ([1]; antibiotic 3 μg/mL, 24 hours) | Growth ([1]; antibiotic 3 μg/mL, 48 hours) | Growth ([1]; antibiotic 4 μg/mL, 24 hours) | Growth ([1]; antibiotic 4 μg/mL, 48 hours) | Growth ([2]; antibiotic 3 μg/mL, 24 hours) | Hemolysis ([2]; antibiotic 3 μg/mL, 24 hours) | Growth ([2]; antibiotic 3 μg/mL, 48 hours) | Hemolysis ([2]; antibiotic 3 μg/mL, 48 hours) | Growth ([2]; antibiotic 4 μg/mL, 24 hours) | Hemolysis ([2]; antibiotic 4 μg/mL, 24 hours) | Growth ([2]; antibiotic 4 μg/mL, 48 hours) | Hemolysis ([2]; antibiotic 4 μg/mL, 48 hours)
